Consider 21 compounds from patent US4668682A, “2-Phenylalkyl-3-aminoalkyl-4(3H)-quinazolinone compound” (Mitsubishi Chemical Industries Limited, priority 1984, dated 1987).

As a reminder, the LD50 is the dose expected to kill half of the subjects tested.

Counter-ions that a name gives are not always drawn.

Data set [1] deals with acetylcolinesterase. The note with it: Indian J. Pharm., 33, 80 (1971); cited from earlier work.
Data set [2] relates to calcium induced contraction of the isolated thoracic aorta in rats. In words: Calcium antagonistic activity: relaxation of calcium induced contraction of isolated thoracic aorta. The format is cell-based, rat (male Wistar strain). Particulars: spiral specimen of rat thoracic aorta, 80 mM potassium, 10 mM Ca++; relaxing activity; read-out: Minimum effective concentration. How it is done:
Calcium antagonistic activity
Calcium antagonistic activity of the present compound was investigated by observing the effects on the calcium induced contraction of the isolated thoracic aorta in rats.
A piece of thoracic aorta was isolated from male Wistar strain rats weighing 350-450 g in order to prepare a spiral specimen. This specimen was suspended in a Krebs-Henseleit solution free from calcium. The contraction was evoked by an application of CaCl2 in the presence of 80 mM potassium so as to adjust the solution at a concentration of 10 mM Ca^++. The present compound to be tested was applied to the specimen which had been maximally contracted and was evaluated for its relaxing activity.

Data set [3] has as its system blood flow of the circumflex branch of left coronary artery (dog). In words: Increasing activity of coronary blood flow in anesthetized dogs. The format is in vivo, dog (mongrel). The note with it: Canis lupus familiaris, 0.1 mg/kg iv, read-out: Increase rate of coronary blood flow. Here is the method: Increasing activity of coronary blood flow
Male and female mongrel dogs weighing 8 to 17.5 kg were anesthetized with intravenous administration of sodium pentobarbital at a dosage of 30 mg/kg. Under artificial respiration the chest was opened on the left side at the level of the fourth intercostal space and the heart was exposed. The circumflex branch of left coronary artery just below the junction of the anterior descending branch of left coronary artery was isolated in a width of approximately 1 cm, and a flow probe was placed around this artery in order to measure the blood flow of the circumflex branch of left coronary artery by means of an electromagnetic flow meter. During the tests, systemic blood pressure was monitored, and data obtained from tests where the mean blood presure was less than 65 mmHg were excluded from the final data. The pharmaceutical compound to be tested was dissolved in physiological saline or 50% ethanol/50% physiological saline and the thus obtained solution was intravenously administered at a dosage of 1 ml/10 kg through a polyethylene catheter which had been provided within the left femoral vein. The increasing activity of the blood flow of the circumflex branch of left coronary artery was evaluated and expressed in terms of increase rate of the blood flow after the administration of the compound to that of before the administration of the compound.

Data set [4] is described as follows: Acute toxicity test (mouse, oral administration). Particulars: in vivo, male ICR mice, fasted 18 hours. Here is the method: Tests were made using groups each comprising five male ICR strain mice weighing 30 to 35 g and being kept under a fast for 18 hours. The compound to be tested was suspended in a 1% tragacanth solution. After the concentration of the suspensions was adjusted in a volume of 40 ml/kg, the compound was administered orally to the mouse.

In data set [5] the test system is spontaneously hypertensive rats (SHR), average blood pressure. Briefly: Antihypertensive activity in spontaneously hypertensive rats. The format is in vivo, rat (SHR). The note with it: oral. How it is done:
Antihypertensive activity
The compounds to be tested were administered orally to evaluate antihypertensive activity in spontaneously hypertensive rats (hereinafter SHR).
The average blood pressure of male SHR, 20 to 30 weeks old, was measured in a non-anestetised and non restraint state, through a catheter which had been chronically implanted into the abdominal aorta through the right fermoral artery, using an electromanometer. At the same time, the heart rate was measured by a tachometer triggered by the pulse pressure. The compound to be tested was suspended in a 1% tragacanth solution. After the concentration of the suspensions was adjusted in a volume of 5 ml/kg, the compound was administered orally to the SHR. The blood pressure and heart rate were measured 0.5, 1, 3, 6 and 24 hours after the administration.

On to `CCCCN(CCCC)CCCn1c(C)nc2ccc(Cl)cc2c1=O` [2-methyl-3-(3-dibutylaminopropyl)-6-chloro-4(3H)-quinazolinone], for which the “inhibitive activity of acetylcolinesterase” value in data set [1] is listed as “inhibitive activity of acetylcolinesterase”.

Take `CCN(CC)CCn1c(Cc2cc(OC)ccc2OC)nc2ccccc2c1=O` [Compound 13]: the minimal effective concentration in data set [2] was 3 µM. Also, the change in vivo at 0.1 mg/kg in data set [3] came to 32.7%. This compound also yielded an LD50 in data set [4] of 700 mg/kg.

For `CCN(CC)CCCn1c(Cc2cc(OC)ccc2OC)nc2ccccc2c1=O` [Compound 14], the minimal effective concentration in data set [2] is 1 µM. In addition, in data set [3], the change in vivo at 0.1 mg/kg came out at 42.7%.

For `COc1ccc(OC)c(Cc2nc3ccccc3c(=O)n2CCN2CCCC2)c1` [Compound 15], the minimal effective concentration in data set [2] amounted to 0.3 µM. Further, the change in vivo at 0.1 mg/kg in data set [3] was determined as 45.3%.

Regarding `CCN(CC)CCn1c(Cc2ccccc2OCc2ccccc2)nc2ccccc2c1=O` [Compound 19], the minimal effective concentration in data set [2] is 0.3 µM.

For `CCN(CC)CCn1c(Cc2ccc(OCc3ccccc3)cc2)nc2ccccc2c1=O` [Compound 20], the minimal effective concentration in data set [2] turned out to be 0.3 µM.

Take `CCN(CC)CCn1c(Cc2cc(OC)ccc2OC)nc2ccc(I)cc2c1=O` [Compound 26]: the minimal effective concentration in data set [2] is 1 µM.

As to `COc1ccc(OC)c(Cc2nc3ccc(OC(C)C)cc3c(=O)n2CCCN(C)C)c1` [Compound 30, 2-(2,5-Dimethoxyphenylmethyl)-3-(3-dimetylaminopropyl)-6-isopropoxy-4(3H)-quinazolinone maleate], the minimal effective concentration in data set [2] came to 0.3 µM.

For `COc1ccc(OC)c(Cc2nc3ccc(C)cc3c(=O)n2CCN2CCCC2)c1` [Compound 31], the minimal effective concentration in data set [2] amounted to 1 µM. The change in vivo at 0.1 mg/kg in data set [3] is 42.5%. The same compound displayed an LD50 in data set [4] of 1000 mg/kg.

With `COc1ccc(OC)c(Cc2nc3ccc(OC(C)C)cc3c(=O)n2CCN(C)C)c1` [Compound 47], the minimal effective concentration in data set [2] turned out to be 0.1 µM. Besides, the change in vivo at 0.1 mg/kg in data set [3] is 95.4%. In data set [5] (10 mg/kg), the “Increase rate of average blood pressure after administration, after 1 hour” value (“Increase rate … after 1 hour” for short) is -12% and the “Increase rate of average blood pressure after administration, after 3 hours” value (“Increase rate … after 3 hours” below) was -3%. In data set [4], this compound registered an LD50 of 750 mg/kg.

With `COc1ccc(Cc2nc3ccc(OC(C)C)cc3c(=O)n2CCN(C)C)cc1` [Compound 50], the minimal effective concentration in data set [2] amounted to 0.3 µM. Moreover, in data set [5] (10 mg/kg), the “Increase rate … after 1 hour” value is recorded as -17% and the “Increase rate … after 3 hours” value is -7%. For the same compound, the LD50 in data set [4] came to 700 mg/kg.

As to `CCC(C)Oc1ccc2nc(Cc3cc(OC)ccc3OC)n(CCN(C)C)c(=O)c2c1` (stereo not shown) [Compound 63], the minimal effective concentration in data set [2] was determined as 0.3 µM. In addition, the change in vivo at 0.1 mg/kg in data set [3] turned out to be 77.3%. In addition, in data set [4], the LD50 was 1200 mg/kg.

`CCC(C)Oc1ccc2nc(Cc3cc(OC)ccc3OC)n(CCCN(C)C)c(=O)c2c1` (stereo not shown) [Compound 64]: the minimal effective concentration in data set [2] was 0.3 µM. Moreover, in data set [3], the change in vivo at 0.1 mg/kg is 47.6%.

For `COc1ccc(Cc2nc3cc(OC)c(OC(C)C)cc3c(=O)n2CCN(C)C)cc1` [Compound 82], in data set [5] (10 mg/kg), the “Increase rate … after 1 hour” value is reported as -24% and the “Increase rate … after 3 hours” value is -15%. In addition, the LD50 in data set [4] came out at 750 mg/kg.

Turning to `COc1ccc(OC)c(Cc2nc3ccccc3c(=O)n2CCN(C)CCc2ccc(OC)c(OC)c2)c1` [Compound 93], in data set [2], the minimal effective concentration was 0.03 µM.

Regarding `COc1ccc(OC)c(Cc2nc3ccc(OC(C)C)cc3c(=O)n2CCN(C)CCc2ccc(OC)c(OC)c2)c1` [Compound 102], the minimal effective concentration in data set [2] stood at 0.03 µM. Also, in data set [3], the change in vivo at 0.1 mg/kg was found to be 53.6%. For the same compound, in data set [5] (10 mg/kg), the “Increase rate … after 1 hour” value is -11% and the “Increase rate … after 3 hours” value was -2%. The LD50 in data set [4] came to 1000 mg/kg.

Turning to `COc1ccc(OC)c(Cc2nc3ccc(OC(C)C)cc3c(=O)n2CCCN(C)CCc2ccc(OC)c(OC)c2)c1` [Compound 103], in data set [2], the minimal effective concentration stood at 0.1 µM.

Regarding `COc1ccc(OC)c(Cc2nc3ccc(C)cc3c(=O)n2CCN(C)CCc2ccc(OC)c(OC)c2)c1` [Compound 114], the minimal effective concentration in data set [2] was determined as 0.1 µM.

As to `COc1ccc(OC)c(Cc2nc3ccc(I)cc3c(=O)n2CCN(C)CCc2ccc(OC)c(OC)c2)c1` [Compound 116], the minimal effective concentration in data set [2] amounted to 0.03 µM.

In the case of `CCOc1ccc2nc(Cc3cc(OC)ccc3OC)n(CCN(C)CCc3ccc(OC)c(OC)c3)c(=O)c2c1` [Compound 121], the minimal effective concentration in data set [2] came to 0.03 µM.

On to `COc1ccc([C@@H]2Sc3ccccc3N(CCN(C)C)C(=O)[C@@H]2OC(C)=O)cc1` [diltiazem, reference compound], for which the minimal effective concentration in data set [2] stood at 0.3 µM. Further, the change in vivo at 0.1 mg/kg in data set [3] is 91.2%. In data set [5] (30 mg/kg), the “Increase rate … after 1 hour” value is -8% and the “Increase rate … after 3 hours” value stood at 0%. In data set [5] (100 mg/kg), the “Increase rate … after 1 hour” value was -28% and the “Increase rate … after 3 hours” value is -14%. In addition, the LD50 in data set [4] stood at 650 mg/kg.
